Patent publication US8987217B2, “Modified saponins for the treatment of fungal infections” (The General Hospital Corporation, priority 2010, dated 2015)
≈ marks a conversion by molar mass, not a printed value.

Legend:
[1] = tested on: C. albicans strain DAY185; assay: in vitro antifungal activity (MIC) in the co-inoculation assay, turbidity read visually; assay type: cell-based
Description: (§1) The procedure for the co-inoculation antifungal compound screen were conducted as previously described (Okoli et al., PLoS ONE, 4:e7025 (2009); Tampakakis et al., Nat Protocols, 3:1925-1931 (2008)), using the C. albicans strain DAY185 (Davis et al., Infect Immun, 68:5953-5959 (2000)) and the C. elegans glp-4;sek-1 double mutant.
The determination of the lowest concentration of the selected compounds showing in vitro antifungal activity was accomplished by following the steps detailed in the co-inoculation assay, using two-fold serial dilutions of the test compounds.

C. albicans = assay: C. elegans-C. albicans co-inoculation assay, nematode survival; assay type: in vivo
Description: as §1
(§2) This assay allows simultaneous assessment of a compound's potential toxicity and the ability to promote the survival of the nematode in the presence of C. albicans, including modes of action not traditionally considered in antifungal assays such as impeding a fungal virulence factor or promoting host immune response. We performed a screen of 2,560 natural products representing a fraction of the Analyiticon Discovery compound collection (ac-discovery.com) housed at the Broad Institute of Harvard and MIT (Cambridge, Mass.). […] These natural products identified in the primary screen were retested and confirmed (FIG. 1; Table 1). […] Moreover, although the antifungal effects of some of these saponins have been reported (Sata et al., Biosci Biotechnol Biochem, 62:1904-1911 (1998); Ohtani et al., Phytochem, 33:83-86 (1993)), their efficacy against Candida spp. has not been studied.
After confirmation of these hits, dose response experiments were conducted to determine the concentration that provided maximum nematode survival. The compounds conferred a range of nematode survival from 27% (compound A6) to 93% (compounds A2, A7, A24, and A25), however, with the exception of A6, all compounds conferred a nematode survival over 65% (FIG. 1).

C. elegans = assay: toxicity to the nematode in dose response experiments; conditions: dose response experiments, higher concentrations
Text: as §2
Representatives of the saponins family are able to disrupt cellular membranes and the lytic activity on erythrocytes has been used as an assay for some saponins Francis et al., British Journal of Nutrition, 88:587-605 (2002)). This property is derived from the affinity of some saponins for binding cholesterol forming insoluble pores composed of the sterol and saponins (Bangham et al., Nature, 196:952-953(1962); Glauert et al., Nature, 196:953-955 (1962)). […] The dose-response experiments previously used to determine the EC50 and approximate the MIC can also indicate if the saponins maybe toxic to C. elegans and potentially to mammalian cells.

C. albicans strains = assay: MIC by standard CLSI microdilution protocol M27-A; assay type: cell-based
Description: Using the standard Clinical and Laboratory Standards Institute (CLSI) procedure, the in vitro MIC of these two compounds was determined on the following C. albicans strains: DAY185 (the standard strain used throughout the screen), two fluconazole-resistant strains of C. albicans, and an echinocandin-resistant strain of C. albicans (Table 2).
(§3) The minimal inhibitory concentration (MIC) was determined for strains DAY185, 98-145, 95-120 (White et al., Antimicrob Agents Chemother, 46:1704-1713 (2002)), and A15-10 (Garcia-Effron et al., Antimicrob Agents Chemother, 53:112-122 (2009)) spectrophotometrically using RPMI 1640 media (Mediatech, Inc.) following the standard CLSI microdilution protocol M27-A (National Committee for Clinical Laboratory Standards, Reference method for broth dilution susceptibility testing of yeasts. Tentative standard M27-A, Villanova, Pa. (1995)). Biofilm assays using identified compounds were conducted as previously described (Richard et al., Eukaryot Cell, 4:1493-1502 (2005)). The biofilm dry mass was determined by drying the silicone squares in a chemical hood, and weighing the resulting biofilm mass subtracting the previously weighed mass of the silicone square. Biofilm pictures were captured using a confocal laser microscope (TCS NT, Leica Microsystems). Cells were grown at 30° C., exposed to PS for 30 min, and then washed with PBS.

C. albicans biofilm = assay: biofilm formation on silicone pads (dry mass); assay type: cell-based; conditions: 20 μg/mL (below the MIC), compared with caspofungin
Description: as §3, with “Biofilm pictures were captured using a confocal laser microscope (TCS NT, Leica Microsystems). Cells were grown at 30° C., exposed to PS for 30 min, and then washed with PBS.” left out
Caspofungin (Merck) served as a known antifungal compound control. In vitro hyphal inhibition was assessed by incubation of DAY185 in RPMI 1640 media at 37° C. […] The ability of the antifungal compound A16, at either 2 or 4 μg/mL, to induce osmotic stress was assessed using DAY185 grown in a 96 well microtiter plate containing RPMI 1640 media and NaCl, ranging in concentrations from 0-2 M in 0.25 M increments. The growth of the fungus was measured spectrophotometrically after 48 hours of growth at 35° C.

sheep erythrocytes = assay: hemolysis of sheep erythrocytes; assay type: cell-based; conditions: 100 μg/mL
Description: The cytotoxicity for the identified compounds was confirmed as previously described (Breger et al., PLoS Pathog, 3:e18 (2007); Moy et al., Proc Natl Acad Sci USA, 103:10414-10419 (2006)). Hemolysis of sheep erythrocytes (Rockland Immunochemicals) was monitored on a spectrophotometer at A540 with the two natural products A16 and A19 (100 μg/mL) in 2% DMSO. Triton X-100 and DMSO were used as controls.

**Q.** With C/C=C(/C)C(=O)O[C@H]1CC(C)(C)C[C@H]2C3=CCC4[C@@]5(C)CC[C@H](O[C@@H]6O[C@H](C(=O)O)[C@@H](O[C@@H]7O[C@H](CO)[C@H](O)[C@H](O)[C@H]7O[C@@H]7O[C@H](CO)[C@@H](O)[C@H](O)[C@H]7O)[C@H](O)[C@H]6OC6O[C@@H](C)[C@H](O)[C@@H](O)[C@H]6O)C(C)(C)C5CC[C@@]4(C)[C@]3(C)C[C@@H](O)[C@@]12CO (some centres unmarked) [A19] as the compound, how does the MIC in vitro ([1]; co-inoculation assay, two-fold serial dilutions, C. albicans DAY185) read?
**A.** 26.5 µg/mL (≈ 22 µM)

**Q.** What about the “in vitro growth of C. albicans” value ([1]; screen / dose response) of the same compound?
**A.** completely inhibited

**Q.** What about the maximum nematode survival (C. albicans; dose response, C. albicans-infected C. elegans) of the same compound?
**A.** 80%

**Q.** What about the EC50 in vivo (C. albicans; dose that resulted in 50% survival of C. albicans-infected nematodes) of the same compound?
**A.** 26.5 µg/mL (≈ 22 µM)

**Q.** What about the “toxicity to the nematode” value (C. elegans) of the same compound?
**A.** none of the concentrations used in the dose response experiment showed signs of toxicity

**Q.** And the MIC (C. albicans strains; C. albicans DAY185)?
**A.** 32 µg/mL (≈ 26.6 µM)

**Q.** And the MIC (C. albicans strains; echinocandin-resistant strain A15)?
**A.** 16 µg/mL (≈ 13.3 µM)

**Q.** What about the MIC (C. albicans strains; fluconazole-resistant strain 95-120) of the same compound?
**A.** 32 µg/mL (≈ 26.6 µM)

**Q.** And the MIC (C. albicans strains; fluconazole-resistant strain 98-145)?
**A.** 32 µg/mL (≈ 26.6 µM)

**Q.** And the biofilm formation (C. albicans biofilm)?
**A.** able to inhibit biofilm formation

**Q.** And the hemolytic activity (sheep erythrocytes)?
**A.** no hemolytic activity
